Earlier results, collected in patent publication US7610153B2, “Multi-drug titration and evaluation” (Virginia Commonwealth University, priority 2002, dated 2009).

Conditions: literature

hypoglycemia: does not cause hypoglycemia
Compound: CN(C)C(=N)N=C(N)N [metformin]
decrease in fasting and postprandial glycemia (type 2 diabetes): 60 to 70 mg/dL
